Common to all, as to assay type: biochemical
The target of assay [1] is T1, human IGF1R cytoplasmic domain (Homo sapiens, UniProt P08069).
T1 construct: The human IGF1R cytoplasmic domain was cloned; made in house; host or cells: SF21 insect cells (baculovirus)
Briefly: IGF1R autophosphorylation inhibition, time resolved fluorescence (HTRF) assay. As to conditions: 10 μM; read-out: IGF1R % inhib at 10 μM. Summed up:
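GST-tagged human IGF1R cytoplasmic domain from SF21 cells incubated with compound in 50 mM Hepes pH 7.5, 5 mM MnCl2, 50 mM NaCl, […] ATP. Autophosphorylation detected by HTRF (Eu-K anti-phosphotyrosine, XL665 anti-GST) after EDTA/KF stop; percentage inhibition versus no-compound control.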
A general note: TR-FRET usually uses a lanthanide donor and a delayed reading to cut background.

A further assay addresses T2, human FAK (Homo sapiens, UniProt Q05397).
T2 construct: The complete cDNA of human FAK; made in house; host or cells: baculovirus expression system (vector pFastBac HTc)
Put plainly: FAK autophosphorylation inhibition, time resolved fluorescence (HTRF) assay. As to conditions: 10 μM (values without asterisk); read-out: FAK % inhib at 10 μM. Summed up: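 Autophosphorylation was detected by europium-cryptate anti-pTyr and XL665 anti-His energy transfer, percent inhibition from the 665/620 ratio relative to no-compound wells. Enzyme: His-FAK full length, 6.6 µg/ml, incubated 1 h at 37 °C, pH 7.2, 15 µM ATP.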

Another assay has as its target T3, Aurora2 kinase (Homo sapiens, UniProt O14965).
T3 construct: A complete recombinant Aurora2 enzyme; His tag (N); made in house; host or cells: E. coli
T3 sequence (O14965 1-403): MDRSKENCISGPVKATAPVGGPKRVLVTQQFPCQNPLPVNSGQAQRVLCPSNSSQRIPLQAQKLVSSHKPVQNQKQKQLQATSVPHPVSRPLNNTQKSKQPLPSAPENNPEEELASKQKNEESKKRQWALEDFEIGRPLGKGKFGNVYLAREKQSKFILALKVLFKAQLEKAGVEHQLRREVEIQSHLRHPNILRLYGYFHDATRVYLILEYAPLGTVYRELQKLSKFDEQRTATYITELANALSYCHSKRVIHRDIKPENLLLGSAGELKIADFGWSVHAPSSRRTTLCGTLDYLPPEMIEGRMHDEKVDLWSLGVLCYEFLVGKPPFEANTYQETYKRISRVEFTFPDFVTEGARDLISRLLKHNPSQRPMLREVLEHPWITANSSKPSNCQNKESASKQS
Briefly: Aurora2 kinase radioactivity scintillation assay using nickel chelate (NuMA substrate). As to conditions: 10 μM; read-out: Aurora2 % inhib at 10 μM. Summed up:
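Read-out is 33P incorporation into His-NuMA (Q1687-H2101, 0.5 μM) captured on nickel chelate, after 30 min at 37 °C with 0.02 μM His-Aurora2 and 1 μM ATP. Expressed as percentage inhibition of uncompounded control activity, background subtracted.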

For another assay, the target named is T4, human KDR enzyme (Homo sapiens, UniProt P35968).
T4 construct: The cytoplasmic domain of the human KDR enzyme; GST; made in house; host or cells: SF21 insect cells (baculovirus)
Briefly: KDR substrate (PLCγ) phosphorylation, scintillation assay. To be noted: 10 μM; read-out: KDR % inhib at 10 μM. Summed up:
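Values are percent inhibition relative to the compound-free control, read by scintillation counting of 33P incorporation after EDTA stop. Baculovirus/SF21-expressed GST-KDR cytoplasmic domain (100 ng) acted for 1 h at 37 °C in pH 7.2 MOPS kinase buffer. The substrate was GST-PLCγ SH2-SH3 (2 μg), added with γ33P-ATP and 2 μM unlabeled ATP.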

Molecules are shown by their SMILES.

The text below walks through data of patent US6858638B2, “Substituted indazoles, compositions containing them, method of production and use” (Aventis Pharma S.A., priority 2002, dated 2005).

T1 sequence (P08069 960-1367 limits assumed): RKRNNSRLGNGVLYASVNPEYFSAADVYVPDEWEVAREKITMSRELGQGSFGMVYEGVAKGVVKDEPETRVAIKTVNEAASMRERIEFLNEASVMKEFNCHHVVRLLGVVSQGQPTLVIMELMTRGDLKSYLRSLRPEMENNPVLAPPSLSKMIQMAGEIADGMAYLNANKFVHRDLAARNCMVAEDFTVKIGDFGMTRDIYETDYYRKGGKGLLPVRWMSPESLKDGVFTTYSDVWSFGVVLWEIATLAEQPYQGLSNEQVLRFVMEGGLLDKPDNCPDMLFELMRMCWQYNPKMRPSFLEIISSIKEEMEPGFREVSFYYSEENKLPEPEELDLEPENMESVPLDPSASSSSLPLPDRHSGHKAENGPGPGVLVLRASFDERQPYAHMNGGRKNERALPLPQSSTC
T2 sequence (Q05397 whole entry): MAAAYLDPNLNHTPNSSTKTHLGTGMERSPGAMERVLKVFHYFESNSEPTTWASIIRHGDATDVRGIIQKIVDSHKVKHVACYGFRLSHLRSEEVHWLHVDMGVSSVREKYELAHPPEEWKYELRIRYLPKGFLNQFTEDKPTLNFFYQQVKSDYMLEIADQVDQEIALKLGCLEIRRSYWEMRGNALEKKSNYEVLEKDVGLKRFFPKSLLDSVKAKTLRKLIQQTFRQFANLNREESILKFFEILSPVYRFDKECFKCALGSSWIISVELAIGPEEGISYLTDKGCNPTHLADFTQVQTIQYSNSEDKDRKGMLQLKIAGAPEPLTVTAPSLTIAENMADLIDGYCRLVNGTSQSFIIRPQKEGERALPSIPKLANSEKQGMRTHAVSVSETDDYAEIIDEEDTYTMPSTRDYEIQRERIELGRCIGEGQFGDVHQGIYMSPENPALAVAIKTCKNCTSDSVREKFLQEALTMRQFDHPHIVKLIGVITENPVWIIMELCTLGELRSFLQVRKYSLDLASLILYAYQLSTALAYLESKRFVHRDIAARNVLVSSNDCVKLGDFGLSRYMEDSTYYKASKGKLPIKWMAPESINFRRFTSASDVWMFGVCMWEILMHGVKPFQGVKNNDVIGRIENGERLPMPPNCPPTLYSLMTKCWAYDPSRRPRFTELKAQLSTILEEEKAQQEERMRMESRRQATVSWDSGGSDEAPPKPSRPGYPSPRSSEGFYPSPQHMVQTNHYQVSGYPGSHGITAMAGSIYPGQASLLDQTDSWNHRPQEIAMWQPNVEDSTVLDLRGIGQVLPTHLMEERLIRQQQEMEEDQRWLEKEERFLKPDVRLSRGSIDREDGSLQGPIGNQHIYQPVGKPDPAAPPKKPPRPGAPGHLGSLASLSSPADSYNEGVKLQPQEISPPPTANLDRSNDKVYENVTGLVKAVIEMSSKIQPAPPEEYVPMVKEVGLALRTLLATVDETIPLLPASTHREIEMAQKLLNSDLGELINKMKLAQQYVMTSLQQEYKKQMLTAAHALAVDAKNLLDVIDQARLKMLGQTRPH
T4 sequence (P35968 786-1356 limits assumed): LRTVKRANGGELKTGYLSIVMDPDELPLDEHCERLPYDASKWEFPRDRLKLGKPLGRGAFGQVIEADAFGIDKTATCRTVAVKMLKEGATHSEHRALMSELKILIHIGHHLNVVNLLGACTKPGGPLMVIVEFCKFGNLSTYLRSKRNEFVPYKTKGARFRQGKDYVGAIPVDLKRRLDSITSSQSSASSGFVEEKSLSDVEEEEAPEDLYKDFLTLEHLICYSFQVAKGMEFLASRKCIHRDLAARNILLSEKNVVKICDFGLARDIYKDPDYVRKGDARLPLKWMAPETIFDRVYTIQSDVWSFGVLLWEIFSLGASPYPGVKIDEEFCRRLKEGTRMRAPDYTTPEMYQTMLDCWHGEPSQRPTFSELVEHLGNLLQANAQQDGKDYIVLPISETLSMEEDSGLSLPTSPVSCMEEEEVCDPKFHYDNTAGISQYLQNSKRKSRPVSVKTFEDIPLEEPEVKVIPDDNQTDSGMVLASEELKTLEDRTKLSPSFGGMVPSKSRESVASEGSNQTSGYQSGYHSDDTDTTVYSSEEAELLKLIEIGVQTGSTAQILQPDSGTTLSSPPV

As to `COc1ccccc1-c1n[nH]c2ccc(NS(=O)(=O)c3ccccc3S(C)(=O)=O)cc12` [Example 183, 2-Methanesulfonyl-N-[3-(2-methoxyphenyl)-1H-indazol-5-yl]benzenesulfonamide], the inhibition at 10 µM in assay [1] came to 50%; at human FAK it was 82%; at Aurora2 kinase it was 90%; at human KDR enzyme, 37%.
With `CS(=O)(=O)c1ccccc1S(=O)(=O)Nc1ccc2[nH]nc(-c3cccc(Br)c3)c2c1` [Example 184, N-[3-(3-Bromophenyl)-1H-indazol-5-yl]-2-methanesulfonyl-benzenesulfonamide], the inhibition at 10 µM stood at 73% in assay [1], 96% on human FAK, 93% at Aurora2 kinase and 61% at human KDR enzyme.
`C=Cc1ccc(-c2n[nH]c3ccc(NS(=O)(=O)c4ccccc4S(C)(=O)=O)cc23)cc1` [Example 185, 2-Methanesulfonyl-N-[3-(4-vinylphenyl)-1H-indazol-5-yl]-benzenesulfonamide]: the inhibition at 10 µM is 77% in assay [1], 92% at human FAK, 94% on Aurora2 kinase and 58% at human KDR enzyme.
For `CCOc1cccc(-c2n[nH]c3ccc(NS(=O)(=O)c4ccccc4S(C)(=O)=O)cc23)c1` [Example 186, N-[3-(3-Ethoxyphenyl)-1H-indazol-5-yl]-2-methanesulfonyl-benzenesulfonamide], in that order: 60%, 94%, 90% and 35%.
Regarding `CS(=O)(=O)c1ccccc1S(=O)(=O)Nc1ccc2[nH]nc(-c3ccccc3Cl)c2c1` [Example 187, N-[3-(2-Chlorophenyl)-1H-indazol-5-yl]-2-methanesulfonyl-benzenesulfonamide], the inhibition at 10 µM is 52% in assay [1], 46% at human FAK, 67% at Aurora2 kinase and 49% at human KDR enzyme.
For `CS(=O)(=O)c1ccccc1S(=O)(=O)Nc1ccc2[nH]nc(-c3ccccc3F)c2c1` [Example 188, N-[3-(2-Fluorophenyl)-1H-indazol-5-yl]-2-methanesulfonyl-benzenesulfonamide], the inhibition at 10 µM was found to be 61% in assay [1], 91% at human FAK, 74% at Aurora2 kinase and 64% at human KDR enzyme.
Taken in the same sequence, the figures for `CCOc1ccccc1-c1n[nH]c2ccc(NS(=O)(=O)c3ccccc3S(C)(=O)=O)cc12` [Example 189, N-[3-(2-Ethoxyphenyl)-1H-indazol-5-yl]-2-methanesulfonyl-benzenesulfonamide] were 31%, 70%, 62% and 20%.
For `CCOc1ccc(-c2n[nH]c3ccc(NS(=O)(=O)c4ccccc4S(C)(=O)=O)cc23)cc1` [Example 190, N-[3-(4-Ethoxyphenyl)-1H-indazol-5-yl]-2-methanesulfonyl-benzenesulfonamide], in that order: 74%, 96%, 95% and 50%.
As to `CS(=O)(=O)c1ccccc1S(=O)(=O)Nc1ccc2[nH]nc(-c3ccc(CO)cc3)c2c1` [Example 191, N-[3-(4-Hydroxymethylphenyl)-1H-indazol-5-yl]-2-methanesulfonyl-benzenesulfonamide], the inhibition at 10 µM in assay [1] is 73%; at human FAK it was 96%; at Aurora2 kinase, 88%; on human KDR enzyme, 45%.
For `CS(=O)(=O)c1ccccc1S(=O)(=O)Nc1ccc2[nH]nc(-c3ccc(F)c(F)c3)c2c1` [Example 192, N-[3-(3,4-Difluorophenyl)-1H-indazol-5-yl]-2-methanesulfonyl-benzenesulfonamide], in that order: 72%, 90%, 89% and 47%.
For `CCc1ccc(-c2n[nH]c3ccc(NS(=O)(=O)c4ccccc4S(C)(=O)=O)cc23)cc1` [Example 193, N-[3-(4-Ethylphenyl)-1H-indazol-5-yl]-2-methanesulfonyl-benzenesulfonamide], the inhibition at 10 µM in assay [1] was 65%; on human FAK, 76%; at Aurora2 kinase, 88%; at human KDR enzyme, 56%.
As to `CS(=O)(=O)c1ccccc1S(=O)(=O)Nc1ccc2[nH]nc(-c3ccc(OCc4ccccc4)c(F)c3)c2c1` [Example 194, N-[3-(4-Benzyloxy-3-fluoro-phenyl)-1H-indazol-5-yl]-2-methanesulfonyl-benzenesulfonamide], the inhibition at 10 µM in assay [1] came to 41%; at human FAK, 44%; on Aurora2 kinase it was 58%; on human KDR enzyme it was 39%.
For `Cc1ccc(-c2n[nH]c3ccc(NS(=O)(=O)c4ccccc4S(C)(=O)=O)cc23)cc1C` [Example 195, 2-Methanesulfonyl-N-[3-(3,4-dimethylphenyl)-1H-indazol-5-yl]benzenesulfonamide], in that order: 75%, 91%, 91% and 47%.
For `CS(=O)(=O)c1ccccc1S(=O)(=O)Nc1ccc2[nH]nc(-c3ccc4c(c3)OCO4)c2c1` [Example 196, N-[3-(Benzo[1,3]dioxol-5-yl)-1H-indazol-5-yl]-2-methanesulfonyl-benzenesulfonamide], in that order: 76%, 94%, 94% and 73%.
With `CC(C)(C)c1ccc(-c2n[nH]c3ccc(NS(=O)(=O)c4ccccc4S(C)(=O)=O)cc23)cc1` [Example 197, N-[3-(4-tert-Butylphenyl)-1H-indazol-5-yl]-2-methanesulfonyl-benzenesulfonamide], the inhibition at 10 µM came out at 0% in assay [1], 43% on human FAK, 73% on Aurora2 kinase and 41% on human KDR enzyme.
Taken in the same sequence, the figures for `COc1ccc(-c2n[nH]c3ccc(NS(=O)(=O)c4ccccc4S(C)(=O)=O)cc23)cc1OC` [Example 198, 2-Methanesulfonyl-N-[3-(3,4-dimethoxyphenyl)-1H-indazol-5-yl]benzenesulfonamide] were 76%, 98%, 98% and 66%.
For `COc1ccc(-c2n[nH]c3ccc(NS(=O)(=O)c4ccccc4S(C)(=O)=O)cc23)c(OC)c1` [Example 199, 2-Methanesulfonyl-N-[3-(2,4-dimethoxyphenyl)-1H-indazol-5-yl]benzenesulfonamide], in that order: 27%, 87%, 87% and 45%.
As to `CS(=O)(=O)c1ccccc1S(=O)(=O)Nc1ccc2[nH]nc(-c3cccc(O)c3)c2c1` [Example 200, N-[3-(3-Hydroxyphenyl)-1H-indazol-5-yl]-2-methanesulfonyl-benzenesulfonamide], the inhibition at 10 µM in assay [1] was found to be 73%; at human FAK, 93%; on Aurora2 kinase, 94%; at human KDR enzyme it was 64%.
Regarding `CC(C)c1ccc(-c2n[nH]c3ccc(NS(=O)(=O)c4ccccc4S(C)(=O)=O)cc23)cc1` [Example 201, N-[3-(4-Isopropylphenyl)-1H-indazol-5-yl]-2-methanesulfonyl-benzenesulfonamide], the inhibition at 10 µM in assay [1] is 24%; on human FAK, 55%; on Aurora2 kinase it was 82%; on human KDR enzyme it was 50%.
